This note sets out measurements from the NIST ThermoML archive (doi:10.1016/j.jct.2013.02.004).

The data set in a line: activity coefficient (dimensionless); of the first substance listed, at infinite dilution; xn = mol fraction of the nth substance listed. Particulars: 101 kPa, Liquid, Chromatography, x1 = 0.

Numbers after ± are expanded uncertainties.

Take `CCC(C)(C)OC` [2-methoxy-2-methylbutane] + CCCCCC[n+]1ccc2ccccc2c1.N#C[S-]: the activity coefficient was 9.8 ± 0.67 (308.15 K); 9.34 ± 0.64 (318.15 K); 9.01 ± 0.61 (328.15 K); 8.58 ± 0.59 (338.15 K); 8.36 ± 0.57 (348.15 K); 8.13 ± 0.55 (358.15 K). Also, the activity coefficient (368.15 K) is 7.85 ± 0.54.
With `CCOCC` [diethyl ether] + CCCCCC[n+]1ccc2ccccc2c1.N#C[S-], the activity coefficient runs as follows: (308.15 K) 7.48 ± 0.51; (318.15 K) 7.07 ± 0.48; (328.15 K) 6.69 ± 0.46; (338.15 K) 6.34 ± 0.43; (348.15 K) 6.15 ± 0.42; (358.15 K) 5.91 ± 0.4. Also, for the setting “368.15 K”, the activity coefficient came to 5.66 ± 0.39.
As for `C1CCCCCCC1` [cyclooctane] + CCCCCC[n+]1ccc2ccccc2c1.N#C[S-], the activity coefficient runs as follows: (308.15 K) 18.8 ± 1.3; (318.15 K) 17.5 ± 1.2; (328.15 K) 16.5 ± 1.1; (338.15 K) 15.4 ± 1.1; (348.15 K) 14.5 ± 1; (358.15 K) 13.7 ± 0.9. Moreover, the activity coefficient (368.15 K) came to 12.9 ± 0.9.
Take `CCCCO` [butan-1-ol] + CCCCCC[n+]1ccc2ccccc2c1.N#C[S-]: the activity coefficient (328.15 K) was 0.846 ± 0.054; the activity coefficient (338.15 K) is 0.829 ± 0.053; the activity coefficient (348.15 K) stood at 0.812 ± 0.053; the activity coefficient (358.15 K) amounted to 0.802 ± 0.052; the activity coefficient (368.15 K) came out at 0.788 ± 0.051.
For `CCc1ccccc1` [ethylbenzene] + CCCCCC[n+]1ccc2ccccc2c1.N#C[S-] the same measures were 3.08 ± 0.21, 3.07 ± 0.21, 3.07 ± 0.21, 3.06 ± 0.21 and 3.05 ± 0.21.
`C#CCCCCCC` [1-octyne] + CCCCCC[n+]1ccc2ccccc2c1.N#C[S-]: the activity coefficient turned out to be 6.31 ± 0.43 (308.15 K); 6.43 ± 0.44 (318.15 K); 6.52 ± 0.44 (328.15 K); 6.64 ± 0.45 (338.15 K); 6.71 ± 0.46 (348.15 K); 6.8 ± 0.46 (358.15 K). In addition, the activity coefficient (368.15 K) is 6.87 ± 0.47.
As for `CC(C)=O` [acetone] + CCCCCC[n+]1ccc2ccccc2c1.N#C[S-], the activity coefficient is, setting by setting: (328.15 K) 1.33 ± 0.09; (338.15 K) 1.31 ± 0.09; (348.15 K) 1.3 ± 0.08; (358.15 K) 1.3 ± 0.08; (368.15 K) 1.28 ± 0.08.
As for `C1COCCO1` [1,4-dioxane] + CCCCCC[n+]1ccc2ccccc2c1.N#C[S-], the activity coefficient by setting is: (328.15 K) 1.23 ± 0.08; (338.15 K) 1.25 ± 0.08; (348.15 K) 1.27 ± 0.08; (358.15 K) 1.28 ± 0.08; (368.15 K) 1.31 ± 0.09.
As for `CCCCCCCC` [octane] + CCCCCC[n+]1ccc2ccccc2c1.N#C[S-], the activity coefficient by setting is: (308.15 K) 64.1 ± 4.4; (318.15 K) 58 ± 4; (328.15 K) 53.3 ± 3.7; (338.15 K) 48.3 ± 3.3; (348.15 K) 45.7 ± 3.1; (358.15 K) 42.1 ± 2.9. Besides, where the note is “368.15 K”, the activity coefficient is 38.6 ± 2.6.
Take `Cc1ccc(C)cc1` [1,4-dimethylbenzene] + CCCCCC[n+]1ccc2ccccc2c1.N#C[S-]: the activity coefficient turned out to be 2.82 ± 0.19 (328.15 K); 2.85 ± 0.19 (338.15 K); 2.88 ± 0.2 (348.15 K); 2.9 ± 0.2 (358.15 K); 2.94 ± 0.2 (368.15 K).
Consider `C#CCCC` [1-pentyne] + CCCCCC[n+]1ccc2ccccc2c1.N#C[S-], for which the activity coefficient (308.15 K) worked out at 2.79 ± 0.19; the activity coefficient (318.15 K) was 2.85 ± 0.19; the activity coefficient (328.15 K) was 2.91 ± 0.2; the activity coefficient (338.15 K) is 2.97 ± 0.2; the activity coefficient (348.15 K) amounted to 3.03 ± 0.21; the activity coefficient (358.15 K) came to 3.07 ± 0.21. The activity coefficient (368.15 K) was determined as 3.14 ± 0.21.
With `Cc1ccccc1` [toluene] + CCCCCC[n+]1ccc2ccccc2c1.N#C[S-], the activity coefficient runs as follows: (328.15 K) 2.05 ± 0.14; (338.15 K) 2.07 ± 0.14; (348.15 K) 2.08 ± 0.14; (358.15 K) 2.1 ± 0.14; (368.15 K) 2.11 ± 0.14.
For the compound `CC(C)OC(C)C` [diisopropyl ether] + CCCCCC[n+]1ccc2ccccc2c1.N#C[S-], the activity coefficient is, setting by setting: (308.15 K) 23.7 ± 1.6; (318.15 K) 21.2 ± 1.4; (328.15 K) 20.5 ± 1.4; (338.15 K) 17.6 ± 1.2; (348.15 K) 16.5 ± 1.1; (358.15 K) 15.7 ± 1.1. For the same compound, the activity coefficient (368.15 K) is 14.1 ± 1.
`C1CCCCCC1` [cycloheptane] + CCCCCC[n+]1ccc2ccccc2c1.N#C[S-]: the activity coefficient reads like this: (308.15 K) 17 ± 1.2; (318.15 K) 15.8 ± 1.1; (328.15 K) 14.5 ± 1; (338.15 K) 13.4 ± 0.9; (348.15 K) 12.6 ± 0.9; (358.15 K) 11.9 ± 0.8. In addition, under “368.15 K”, the activity coefficient amounted to 11.3 ± 0.8.
Turning to `C=CCCCCCCCC` [1-decene] + CCCCCC[n+]1ccc2ccccc2c1.N#C[S-], the activity coefficient reads like this: (308.15 K) 50.6 ± 3.5; (318.15 K) 48.1 ± 3.3; (328.15 K) 46.3 ± 3.2; (338.15 K) 44.2 ± 3; (348.15 K) 42.5 ± 2.9; (358.15 K) 40.5 ± 2.8. Besides, the activity coefficient (368.15 K) came to 39.1 ± 2.7.
On to `C=CCCCCC` [1-heptene] + CCCCCC[n+]1ccc2ccccc2c1.N#C[S-], for which the activity coefficient by setting is: (308.15 K) 23.5 ± 1.6; (318.15 K) 22 ± 1.5; (328.15 K) 20.9 ± 1.4; (338.15 K) 19.5 ± 1.3; (348.15 K) 18.7 ± 1.3; (358.15 K) 17.7 ± 1.2. Moreover, the activity coefficient (368.15 K) came to 16.9 ± 1.2.
Take `CCCCCC` [hexane] + CCCCCC[n+]1ccc2ccccc2c1.N#C[S-]: the activity coefficient came to 46.6 ± 3.2 (308.15 K); 40.5 ± 2.8 (318.15 K); 35.6 ± 2.4 (328.15 K); 31.6 ± 2.2 (338.15 K); 28.3 ± 1.9 (348.15 K); 25.4 ± 1.7 (358.15 K). Besides, the activity coefficient (368.15 K) worked out at 23.1 ± 1.6.
Consider `CCCC(C)=O` [pentan-2-one] + CCCCCC[n+]1ccc2ccccc2c1.N#C[S-], for which the activity coefficient reads like this: (328.15 K) 2.1 ± 0.14; (338.15 K) 2.11 ± 0.14; (348.15 K) 2.12 ± 0.14; (358.15 K) 2.12 ± 0.14; (368.15 K) 2.13 ± 0.14.
As to `CCC(C)CC` [3-methylpentane] + CCCCCC[n+]1ccc2ccccc2c1.N#C[S-], the activity coefficient came out at 52.3 ± 3.6 (308.15 K); 43.4 ± 3 (318.15 K); 37.8 ± 2.6 (328.15 K); 31.9 ± 2.2 (338.15 K); 27.9 ± 1.9 (348.15 K); 24.7 ± 1.7 (358.15 K). Moreover, the activity coefficient (368.15 K) turned out to be 21.5 ± 1.5.
As to `CCCC(=O)CC` [3-hexanone] + CCCCCC[n+]1ccc2ccccc2c1.N#C[S-], the activity coefficient by setting is: (328.15 K) 2.86 ± 0.19; (338.15 K) 2.88 ± 0.2; (348.15 K) 2.89 ± 0.2; (358.15 K) 2.9 ± 0.2; (368.15 K) 2.91 ± 0.2.
For `Cc1ccccc1C` [1,2-dimethylbenzene] + CCCCCC[n+]1ccc2ccccc2c1.N#C[S-] the same measures were 2.35 ± 0.16, 2.37 ± 0.16, 2.41 ± 0.16, 2.43 ± 0.17 and 2.45 ± 0.17.
Take `C=CCCCCCC` [oct-1-ene] + CCCCCC[n+]1ccc2ccccc2c1.N#C[S-]: the activity coefficient came out at 30.2 ± 2.1 (308.15 K); 28.5 ± 1.9 (318.15 K); 27.1 ± 1.9 (328.15 K); 25.6 ± 1.8 (338.15 K); 24.4 ± 1.7 (348.15 K); 23.2 ± 1.6 (358.15 K). For the setting “368.15 K”, the activity coefficient is 22.2 ± 1.5.
For `CCOC(C)(C)C` [2-ethoxy-2-methylpropane] + CCCCCC[n+]1ccc2ccccc2c1.N#C[S-], the activity coefficient reads like this: (308.15 K) 20.6 ± 1.4; (318.15 K) 18.6 ± 1.3; (328.15 K) 17.2 ± 1.2; (338.15 K) 15.7 ± 1.1; (348.15 K) 14.7 ± 1; (358.15 K) 13.8 ± 0.9. Also, where the note is “368.15 K”, the activity coefficient stood at 12.8 ± 0.9.
For the compound `Cc1cccc(C)c1` [1,3-dimethylbenzene] + CCCCCC[n+]1ccc2ccccc2c1.N#C[S-], the activity coefficient was found to be 2.9 ± 0.2 (328.15 K); 2.93 ± 0.2 (338.15 K); 2.96 ± 0.2 (348.15 K); 2.98 ± 0.2 (358.15 K); 3.01 ± 0.2 (368.15 K).
On to `CCCOCCC` [dipropyl ether] + CCCCCC[n+]1ccc2ccccc2c1.N#C[S-], for which the activity coefficient is 15.9 ± 1.1 (308.15 K); 14.9 ± 1 (318.15 K); 14.2 ± 1 (328.15 K); 13.2 ± 0.9 (338.15 K); 12.6 ± 0.9 (348.15 K); 11.9 ± 0.8 (358.15 K). The activity coefficient (368.15 K) worked out at 11.3 ± 0.8.
As for `CC#N` [acetonitrile] + CCCCCC[n+]1ccc2ccccc2c1.N#C[S-], the activity coefficient is, setting by setting: (328.15 K) 1.02 ± 0.06; (338.15 K) 1.01 ± 0.06; (348.15 K) 1 ± 0.06; (358.15 K) 0.994 ± 0.062; (368.15 K) 0.982 ± 0.062.
On the same counts, the results for `CCO` [ethanol] + CCCCCC[n+]1ccc2ccccc2c1.N#C[S-] are 0.6 ± 0.042, 0.59 ± 0.042, 0.581 ± 0.041, 0.574 ± 0.041 and 0.566 ± 0.041.
